Assay results reported in PubChem BioAssay (NCI).
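1) Cells in 96-well plates. 2) Compound, 48 h, 5 concentrations. 3) Linear interpolation between surrounding doses. 4) Unreached endpoint = highest concentration. Here, GI50 denotes the concentration required for 50% inhibition of growth. TGI denotes the concentration required for complete inhibition of growth.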

Assays:
Experiment in all cases: NCI-60 cell line screen, 48 h
M14 melanoma = test system: M14 melanoma
COLO 205 colon = test system: COLO 205 colon
SN12C renal = test system: SN12C renal
PC-3 prostate = test system: PC-3 prostate
T-47D breast = test system: T-47D breast
786-0 renal = test system: 786-0 renal
SK-MEL-5 melanoma = test system: SK-MEL-5 melanoma
OVCAR-8 ovarian = test system: OVCAR-8 ovarian
MOLT-4 leukemia = test system: MOLT-4 leukemia
SF-539 CNS = test system: SF-539 CNS

With `CC1NCCC(CC(=O)O)C1CC(=O)O` (centres undefined) the TGI (M14 melanoma) was > 100 µM, the TGI (COLO 205 colon) was > 100 µM and the TGI (SN12C renal) was > 100 µM. For the same compound, the TGI (PC-3 prostate) was > 100 µM, the TGI (T-47D breast) was > 100 µM and the TGI (786-0 renal) was > 100 µM. The TGI (SK-MEL-5 melanoma) was > 100 µM and the TGI (OVCAR-8 ovarian) was > 100 µM.

With `COc1ccc2c(c1)C(=O)CC(C(N)=O)C2` (centres undefined) the TGI (M14 melanoma) was > 100 µM, the TGI (COLO 205 colon) was > 100 µM and the TGI (SN12C renal) was > 100 µM. The TGI (MOLT-4 leukemia) was > 100 µM, the TGI (PC-3 prostate) was > 100 µM and the TGI (T-47D breast) was > 100 µM. For the same compound, the TGI (786-0 renal) was > 100 µM, the TGI (SK-MEL-5 melanoma) was > 100 µM and the TGI (OVCAR-8 ovarian) was > 100 µM.

`Cn1cc(-c2nc(-c3c[nH]c4ccccc34)cs2)c2cccnc21` was tested, and the GI50 (M14 melanoma) was 0.234 µM, the TGI (M14 melanoma) was > 54.2 µM and the GI50 (COLO 205 colon) was 0.188 µM. The TGI (COLO 205 colon) was 1.03 µM, the GI50 (SN12C renal) was 2.09 µM and the TGI (SN12C renal) was > 100 µM. The GI50 (MOLT-4 leukemia) was 0.757 µM, the TGI (MOLT-4 leukemia) was > 60.3 µM and the GI50 (PC-3 prostate) was 0.41 µM. For the same compound, the TGI (PC-3 prostate) was > 100 µM, the GI50 (786-0 renal) was 0.525 µM and the TGI (786-0 renal) was 49.4 µM. For the same compound, the GI50 (SK-MEL-5 melanoma) was 0.255 µM, the TGI (SK-MEL-5 melanoma) was 16.1 µM and the GI50 (OVCAR-8 ovarian) was 0.689 µM. The TGI (OVCAR-8 ovarian) was > 100 µM, the GI50 (SF-539 CNS) was 0.282 µM and the TGI (SF-539 CNS) was 1.44 µM.

`OCC1OC(NO)C(O)C(O)C1O` (centres undefined) was tested, and the TGI (M14 melanoma) was > 100 µM, the TGI (COLO 205 colon) was > 100 µM and the TGI (SN12C renal) was > 100 µM. For the same compound, the TGI (MOLT-4 leukemia) was > 100 µM, the TGI (786-0 renal) was > 100 µM and the TGI (SK-MEL-5 melanoma) was > 100 µM. For the same compound, the TGI (OVCAR-8 ovarian) was > 100 µM and the TGI (SF-539 CNS) was > 100 µM.

`COc1ccc(C2[C@@H](Cl)C(=O)N2c2ccc(OC)cc2)cc1` (some centres undefined) was tested, and the TGI (COLO 205 colon) was > 100 µM, the TGI (SN12C renal) was > 100 µM and the TGI (MOLT-4 leukemia) was > 100 µM. The TGI (786-0 renal) was > 100 µM, the TGI (SK-MEL-5 melanoma) was > 100 µM and the TGI (OVCAR-8 ovarian) was > 100 µM. The TGI (SF-539 CNS) was 49.8 µM.

`CCCCCCCN(CCCCCCC)C(=N)c1ccc(OC)c2ccccc12` was tested, and the GI50 (M14 melanoma) was 1.53 µM, the TGI (M14 melanoma) was 2.95 µM and the GI50 (COLO 205 colon) was 1.01 µM. It also gave a TGI (COLO 205 colon) of 2.35 µM, a GI50 (SN12C renal) of 1.24 µM and a TGI (SN12C renal) of 2.76 µM. It also gave a GI50 (PC-3 prostate) of 1.35 µM, a TGI (PC-3 prostate) of 2.78 µM and a GI50 (T-47D breast) of 1.56 µM. The TGI (T-47D breast) was 3.33 µM, the GI50 (786-0 renal) was 1.31 µM and the TGI (786-0 renal) was 2.95 µM. The GI50 (SK-MEL-5 melanoma) was 1.58 µM, the TGI (SK-MEL-5 melanoma) was 3.01 µM and the GI50 (OVCAR-8 ovarian) was 1.41 µM. The TGI (OVCAR-8 ovarian) was 3.04 µM.

`O=S1(=O)CC#CC[C@@H](CO)[C@@H](CO)CC#CC1` was tested, and the TGI (M14 melanoma) was > 100 µM, the TGI (SN12C renal) was > 100 µM and the TGI (MOLT-4 leukemia) was > 100 µM. For the same compound, the TGI (786-0 renal) was > 100 µM, the TGI (SK-MEL-5 melanoma) was > 100 µM and the TGI (OVCAR-8 ovarian) was > 100 µM. The TGI (SF-539 CNS) was > 100 µM.

With `c1ccc2cc(Cn3c(-c4cccc5ccccc45)[n+](Cc4ccc5ccccc5c4)c4c5ccccc5c5ccccc5c43)ccc2c1` the GI50 (MOLT-4 leukemia) was 0.385 µM, the TGI (MOLT-4 leukemia) was 2.09 µM and the GI50 (PC-3 prostate) was 0.158 µM. The TGI (PC-3 prostate) was 1.53 µM, the GI50 (T-47D breast) was 0.269 µM and the TGI (T-47D breast) was 1.7 µM. It also gave a GI50 (786-0 renal) of 0.308 µM, a TGI (786-0 renal) of 1.7 µM and a GI50 (SK-MEL-5 melanoma) of 0.179 µM. For the same compound, the TGI (SK-MEL-5 melanoma) was 0.338 µM, the GI50 (OVCAR-8 ovarian) was 0.332 µM and the TGI (OVCAR-8 ovarian) was 1.92 µM.

With `CC1=NN(c2ccccc2)C(=O)C1N=Nc1ccc(Br)cc1C` (centres undefined) the TGI (M14 melanoma) was > 100 µM, the TGI (COLO 205 colon) was > 100 µM and the TGI (SN12C renal) was > 100 µM. For the same compound, the TGI (MOLT-4 leukemia) was > 100 µM, the TGI (786-0 renal) was > 100 µM and the TGI (SK-MEL-5 melanoma) was > 100 µM. For the same compound, the TGI (OVCAR-8 ovarian) was > 100 µM and the TGI (SF-539 CNS) was > 100 µM.

In the case of `CC(C)(C)c1cc([Si](C)(C)C)c(C#N)c([Si](C)(C)C)c1`, the TGI (M14 melanoma) is reported as > 100 µM, the TGI (COLO 205 colon) is reported as > 100 µM and the TGI (SN12C renal) is reported as > 100 µM. The TGI (MOLT-4 leukemia) was > 100 µM, the TGI (786-0 renal) was > 100 µM and the TGI (OVCAR-8 ovarian) was > 100 µM. For the same compound, the TGI (SF-539 CNS) was > 100 µM.

For `O=c1[nH]c(C2CCCCC2)nc2ccc(Cl)cc12`, the TGI (COLO 205 colon) was > 100 µM, the TGI (SN12C renal) was > 100 µM and the TGI (MOLT-4 leukemia) was > 100 µM. For the same compound, the TGI (786-0 renal) was > 100 µM, the TGI (SK-MEL-5 melanoma) was > 100 µM and the TGI (OVCAR-8 ovarian) was > 100 µM. For the same compound, the TGI (SF-539 CNS) was > 100 µM.

In the case of `CCn1c(C)nc([N+](=O)[O-])c1Sc1ncc[nH]1`, the TGI (M14 melanoma) is reported as > 100 µM, the TGI (COLO 205 colon) is reported as > 100 µM and the TGI (SN12C renal) is reported as > 100 µM. For the same compound, the TGI (MOLT-4 leukemia) was 76.8 µM, the TGI (786-0 renal) was > 100 µM and the TGI (SK-MEL-5 melanoma) was > 100 µM. For the same compound, the TGI (OVCAR-8 ovarian) was > 100 µM and the TGI (SF-539 CNS) was > 100 µM.

In the case of `Cc1ccccc1C1SCc2nc3ccccc3n21` (centres undefined), the TGI (COLO 205 colon) is reported as > 100 µM, the TGI (SN12C renal) is reported as > 100 µM and the TGI (786-0 renal) is reported as > 100 µM. For the same compound, the TGI (SK-MEL-5 melanoma) was > 100 µM, the TGI (OVCAR-8 ovarian) was > 100 µM and the TGI (SF-539 CNS) was > 100 µM.

`CC1O[C@@H]2CCCCC(=O)[C@]2(C)[C@H]1C` (some centres undefined) was tested, and the TGI (M14 melanoma) was > 100 µM, the TGI (COLO 205 colon) was > 100 µM and the TGI (SN12C renal) was > 100 µM. The TGI (MOLT-4 leukemia) was > 100 µM, the TGI (786-0 renal) was > 100 µM and the TGI (SK-MEL-5 melanoma) was > 100 µM. The TGI (OVCAR-8 ovarian) was > 100 µM.

`O=C(NNC(=O)/C(=C/c1cccc([N+](=O)[O-])c1)NC(=O)c1ccccc1)Nc1ccc(Cl)cc1` showed a TGI (M14 melanoma) of 26.9 µM, a TGI (COLO 205 colon) of 26.8 µM and a TGI (SN12C renal) of 28.2 µM. For the same compound, the TGI (MOLT-4 leukemia) was 25.2 µM, the TGI (786-0 renal) was 29.1 µM and the TGI (SK-MEL-5 melanoma) was 25.7 µM. It also gave a TGI (OVCAR-8 ovarian) of 62.1 µM and a TGI (SF-539 CNS) of 35.1 µM.

In the case of `O/N=C1/C(=C/c2ccc(Br)cc2)CCCC1C(NO)c1ccc(Br)cc1` (centres undefined), the TGI (M14 melanoma) is reported as 29.9 µM, the TGI (COLO 205 colon) is reported as 28.7 µM and the TGI (SN12C renal) is reported as 24.9 µM. It also gave a TGI (MOLT-4 leukemia) of 31.7 µM, a TGI (786-0 renal) of 32.9 µM and a TGI (OVCAR-8 ovarian) of 31.5 µM. It also gave a TGI (SF-539 CNS) of 44.8 µM.

For `[N-]=[N+]=NCCCn1c2c(c3ccccc3c1=O)C(=O)c1cc3c(cc1-2)OCO3`, the GI50 (M14 melanoma) was 79.7 µM, the TGI (M14 melanoma) was > 100 µM and the GI50 (SN12C renal) was > 100 µM. The TGI (SN12C renal) was > 100 µM, the GI50 (MOLT-4 leukemia) was 19.6 µM and the TGI (MOLT-4 leukemia) was > 100 µM. The GI50 (PC-3 prostate) was > 100 µM, the TGI (PC-3 prostate) was > 100 µM and the GI50 (786-0 renal) was 31.9 µM. For the same compound, the TGI (786-0 renal) was > 100 µM, the GI50 (SK-MEL-5 melanoma) was 45.6 µM and the TGI (SK-MEL-5 melanoma) was > 100 µM. For the same compound, the GI50 (OVCAR-8 ovarian) was > 100 µM, the TGI (OVCAR-8 ovarian) was > 100 µM and the GI50 (SF-539 CNS) was 20.9 µM. The TGI (SF-539 CNS) was > 100 µM.
